Source: patent publication US20070293510A1, “Thiadiazole compounds and use thereof” (Sumitomo Chemical company, Limited ( a Japanese corporation), priority 2002, published 2007)

The compounds below were run on cotton aphids (Aphis gossypii) (assay: Test Example: cotton aphid control on cucumber plants, spray of diluted formulation). Conditions: formulation per Formulation Example 5 diluted with water to 500 ppm active ingredient; sprayed 20 ml/cup on cucumber plants with about 20 cotton aphids; counted on the 6th day after application.
Format: in vivo
Experimental: Each formulation of the present compound (1), (3), (4), (6), (7), (8), (12), (13), (14), (15), (16), (17), (18), (19), (20), (21), (22), (23), (24), (25), (26), (28), (30), (31), (33), (34), (35), (36), (37), (38), (42), (43) and (44) obtained according to the Formulation Example 5 was diluted with water so that the active ingredient concentration came to 500 ppm to prepare a diluting liquid. The seeds of cucumber were planted in polyethylene cups and grown until their first foliage leaves developed, on which about 20 cotton aphids (Aphis gossypii) were made parasitic. After one day, the diluting liquid was sprayed at the rate of 20 ml/cup onto the cucumber plants. On the 6th day after the application, the number of cotton aphids was examined. As a result, the numbers of the living cotton aphids were three or less.

SMILES | numbers of the living cotton aphids
CSc1nsc(OCc2ccccc2)n1 [present compound (1), 5-benzyloxy-3-methylthio-1,2,4-thiadiazole] | three or less
CSc1nsc(OCc2cccc(Cl)c2)n1 [present compound (3), 5-(3-chlorobenzyloxy)-3-methylthio-1,2,4-thiadiazole] | three or less
CSc1nsc(OCc2ccc(Cl)cc2)n1 [present compound (4), 5-(4-chlorobenzyloxy)-3-methylthio-1,2,4-thiadiazole] | three or less
CSc1nsc(OCc2cccc(C(F)(F)F)c2)n1 [present compound (6), 5-(3-trifluoromethylbenzyloxy)-3-methylthio-1,2,4-thiadiazole] | three or less
CSc1nsc(OCc2ccc(C(F)(F)F)cc2)n1 [present compound (7), 5-(4-trifluoromethylbenzyloxy)-3-methylthio-1,2,4-thiadiazole] | three or less
CSc1nsc(OCc2ccc(C)cc2)n1 [present compound (8), 5-(4-methylbenzyloxy)-3-methylthio-1,2,4-thiadiazole] | three or less
CSc1nsc(OCc2ccc(F)cc2)n1 [present compound (12), 5-(4-fluorobenzyloxy)-3-methylthio-1,2,4-thiadiazole] | three or less
CSc1nsc(OCc2ccc(Br)cc2)n1 [present compound (13), 5-(4-bromobenzyloxy)-3-methylthio-1,2,4-thiadiazole] | three or less
CSc1nsc(OCc2ccc(I)cc2)n1 [present compound (14), 5-(4-iodobenzyloxy)-3-methylthio-1,2,4-thiadiazole] | three or less
CSc1nsc(OCc2ccc(OC(F)(F)F)cc2)n1 [present compound (15), 5-(4-trifluoromethoxybenzyloxy)-3-methylthio-1,2,4-thiadiazole] | three or less
CSc1nsc(OCc2c(F)cccc2F)n1 [present compound (16), 5-(2,6-difluorobenzyloxy)-3-methylthio-1,2,4-thiadiazole] | three or less
CSc1nsc(OCc2cc(F)cc(F)c2)n1 [present compound (17), 5-(3,5-difluorobenzyloxy)-3-methylthio-1,2,4-thiadiazole] | three or less
CSc1nsc(OCc2ccc(Cl)c(Cl)c2)n1 [present compound (18), 5-(3,4-dichlorobenzyloxy)-3-methylthio-1,2,4-thiadiazole] | three or less
CSc1nsc(OCc2ccccn2)n1 [present compound (19), 5-(2-pyridylmethyloxy)-3-methylthio-1,2,4-thiadiazole] | three or less
CSc1nsc(OCc2ccc(Cl)nc2)n1 [present compound (21), 5-(6-chloro-3-pyridyl)methyloxy-3-methylthio-1,2,4-thiadiazole] | three or less
CSc1nsc(OC(C)c2ccccc2)n1 (centres unmarked) [present compound (22), 5-(1-phenylethoxy)-3-methylthio-1,2,4-thiadiazole] | three or less

SMILES | numbers of the living cotton aphids
CSc1nsc(OCCc2ccccc2)n1 [present compound (23), 5-(2-phenylethoxy)-3-methylthio-1,2,4-thiadiazole] | three or less
CSc1nsc(OCCc2ccccn2)n1 [present compound (24), 5-(2-pyridyl-2-ethyloxy)-3-methylthio-1,2,4-thiadiazole] | three or less
CSc1nsc(OCCCc2ccccc2)n1 [present compound (25), 5-(3-phenylpropyloxy)-3-methylthio-1,2,4-thiadiazole] | three or less
CSc1nsc(OCc2cccc([N+](=O)[O-])c2)n1 [present compound (26), 5-(3-nitrobenzyloxy)-3-methylthio-1,2,4-thiadiazole] | three or less
CSc1nsc(OCc2cc(Cl)cc(Cl)c2)n1 [present compound (28), 5-(3,5-dichlorobenzyloxy)-3-methylthio-1,2,4-thiadiazole] | three or less
C=CCSc1nsc(OCc2ccccc2)n1 [present compound (30), 5-benzyloxy-3-allylthio-1,2,4-thiadiazole] | three or less
c1ccc(COc2nc(SCc3ccccc3)ns2)cc1 [present compound (31), 5-benzyloxy-3-benzylthio-1,2,4-thiadiazole] | three or less
COc1ccc(CSc2nsc(OCc3ccccc3)n2)cc1 [present compound (33), 5-benzyloxy-3-(4-methoxybenzyl)thio-1,2,4-thiadiazole] | three or less
CSc1nsc(OCc2ccncc2)n1 [present compound (34), 5-(4-pyridylmethyloxy)-3-methylthio-1,2,4-thiadiazole] | three or less
CSc1nsc(OCc2cccc(Cl)n2)n1 [present compound (35), 5-(6-chloro-2-pyridylmethyloxy)-3-methylthio-1,2,4-thiadiazole] | three or less
CSc1nsc(OCc2ncccn2)n1 [present compound (36), 5-(2-pyrimidylmethyloxy)-3-methylthio-1,2,4-thiadiazole] | three or less
CSc1nsc(OCc2cncnc2)n1 [present compound (37), 5-(5-pyrimidylmethyloxy)-3-methylthio-1,2,4-thiadiazole] | three or less
c1ccc(CSc2nsc(OCc3cncnc3)n2)cc1 [present compound (38), 5-(5-pyrimidylmethyloxy)-3-benzylthio-1,2,4-thiadiazole] | three or less
CCOCSc1nsc(OCc2ccccc2)n1 [present compound (42), 5-benzylloxy-3-ethoxymethylthio-1,2,4-thiadiazole] | three or less
c1ccc(COCSc2nsc(OCc3ccccc3)n2)cc1 [present compound (43), 5-bezyloxy-3-benzyloxymethylhio-1,2,4-thiadiazole] | three or less
CC(=O)OCSc1nsc(OCc2ccccc2)n1 [present compound (44), 5-bezyloxy-3-acetoxymethylhio-1,2,4-thiadiazole] | three or less
